Measurements from article PMC8673672, “Synthesis and evaluation of radiogallium-labeled long-chain fatty acid derivatives as myocardial metabolic imaging agents” (PLoS ONE, 2021).

Columns and labels:
[1] = design: method as in PMID 31869735; details: Ga complex; cited from earlier work
[2] = Biodistribution study in normal mice; type: in vivo; details: ddY mice, i.v.
Description: The animal experimental protocols used were approved by the Committee on Animal Experimentation of Kanazawa University (AP-204165). All experiments with animals were conducted in strict accordance with the Guidelines for the Care and Use of Laboratory Animals of Kanazawa University. Mice were housed together in individually ventilated cages with three mice per cage. The animals were housed at 23°C with a 12 h light/dark schedule with free access to a standardized mouse diet and provided drinking water ad libitum water. Autoclaved wood chips were applied as bedding material. The behavior of the mice during the experimental period was normal. Seventy-five ddY mice (male; 6-week-old; 29–33 g) were purchased from Japan SLC Inc., Hamamatsu, Japan. The mice were randomly divided into five groups (n = 15 mice per group) with five different time points for each group (n = 3 mice per time point).
Radiotracers, [^67Ga]5, [^67Ga]6, [^67Ga]7, or [^67Ga]8, in saline containing 5% ethanol and 0.1% tween-80, or [^123I]BMIPP (74 kBq/100 μL, respectively) was intravenously injected into mice via the tail. The ddY mice were sacrificed by decapitation at 0.5, 2, 5, 20, and 60 min. Tissues of interest were removed and weighed. The radioactivity of the tissues was determined using an auto well gamma counter. The data were expressed as percent injected dose per gram tissue (%ID/g).

For `O=C([O-])CN1CCN(CC(=O)[O-])CCN(CC(=O)O)CCN(CC(=O)[O-])CC1.[Ga+3]` [Ga-DOTA], the “Stability constant (log K)” value [1] is given as 21.3.

With `CC(CCCCCCCCCCCCc1ccc([123I])cc1)CC(=O)O` (stereo not drawn) [[^123I]BMIPP, β-methyl [^123I]iodophenyl-pentadecanoic acid] the Blood radioactivity ([2]; 0.5 min after injection) was 20.30 (1.55) %ID/g, the Bone radioactivity ([2]; 0.5 min after injection) was 2.63 (0.33) %ID/g and the Brain radioactivity ([2]; 0.5 min after injection) was 0.51 (0.11) %ID/g. For the same compound, the Kidney radioactivity ([2]; 0.5 min after injection) was 5.21 (0.42) %ID/g, the Large intestine radioactivity ([2]; 0.5 min after injection) was 0.42 (0.07) %ID/g and the Liver radioactivity ([2]; 0.5 min after injection) was 12.44 (2.40) %ID/g. The Lung radioactivity ([2]; 0.5 min after injection) was 24.09 (4.19) %ID/g, the Muscle radioactivity ([2]; 0.5 min after injection) was 2.85 (0.69) %ID/g and the Pancreas radioactivity ([2]; 0.5 min after injection) was 2.43 (0.68) %ID/g. The Small intestine radioactivity ([2]; 0.5 min after injection) was 0.91 (0.15) %ID/g, the Spleen radioactivity ([2]; 0.5 min after injection) was 4.91 (1.27) %ID/g and the Stomach radioactivity ([2]; 0.5 min after injection) was 0.60 (0.11) %ID/organ. For the same compound, the Heart uptake ([2]; 0.5 min after injection (initial myocardial uptake)) was 21.36 (2.73) %ID/g, the Blood radioactivity ([2]; 2 min after injection) was 6.01 (0.74) %ID/g and the Bone radioactivity ([2]; 2 min after injection) was 1.97 (0.03) %ID/g. The Brain radioactivity ([2]; 2 min after injection) was 0.22 (0.03) %ID/g, the Heart uptake ([2]; 2 min after injection) was 27.60 (3.15) %ID/g and the Kidney radioactivity ([2]; 2 min after injection) was 5.27 (0.61) %ID/g. The Large intestine radioactivity ([2]; 2 min after injection) was 0.68 (0.14) %ID/g, the Liver radioactivity ([2]; 2 min after injection) was 21.35 (0.89) %ID/g and the Lung radioactivity ([2]; 2 min after injection) was 15.88 (1.94) %ID/g. For the same compound, the Muscle radioactivity ([2]; 2 min after injection) was 3.24 (0.49) %ID/g, the Pancreas radioactivity ([2]; 2 min after injection) was 6.11 (1.90) %ID/g and the Small intestine radioactivity ([2]; 2 min after injection) was 1.33 (0.23) %ID/g. For the same compound, the Spleen radioactivity ([2]; 2 min after injection) was 3.76 (1.18) %ID/g, the Stomach radioactivity ([2]; 2 min after injection) was 0.70 (0.17) %ID/organ and the Blood radioactivity ([2]; 5 min after injection) was 6.75 (1.07) %ID/g. The Bone radioactivity ([2]; 5 min after injection) was 2.29 (0.27) %ID/g, the Brain radioactivity ([2]; 5 min after injection) was 0.25 (0.03) %ID/g and the Heart uptake ([2]; 5 min after injection) was 28.03 (5.37) %ID/g. The Kidney radioactivity ([2]; 5 min after injection) was 5.93 (1.23) %ID/g, the Large intestine radioactivity ([2]; 5 min after injection) was 0.66 (0.11) %ID/g and the Liver radioactivity ([2]; 5 min after injection) was 16.33 (4.41) %ID/g. The Lung radioactivity ([2]; 5 min after injection) was 16.87 (3.08) %ID/g, the Muscle radioactivity ([2]; 5 min after injection) was 3.42 (1.06) %ID/g and the Pancreas radioactivity ([2]; 5 min after injection) was 5.66 (4.30) %ID/g. For the same compound, the Small intestine radioactivity ([2]; 5 min after injection) was 1.39 (0.27) %ID/g, the Spleen radioactivity ([2]; 5 min after injection) was 3.09 (1.26) %ID/g and the Stomach radioactivity ([2]; 5 min after injection) was 0.95 (0.28) %ID/organ. For the same compound, the Blood radioactivity ([2]; 20 min after injection) was 10.84 (0.20) %ID/g, the Bone radioactivity ([2]; 20 min after injection) was 2.66 (0.22) %ID/g and the Brain radioactivity ([2]; 20 min after injection) was 0.43 (0.07) %ID/g. The Heart uptake ([2]; 20 min after injection) was 23.41 (3.39) %ID/g, the Kidney radioactivity ([2]; 20 min after injection) was 8.03 (0.09) %ID/g and the Large intestine radioactivity ([2]; 20 min after injection) was 1.20 (0.04) %ID/g. For the same compound, the Liver radioactivity ([2]; 20 min after injection) was 6.54 (0.43) %ID/g, the Lung radioactivity ([2]; 20 min after injection) was 16.21 (1.50) %ID/g and the Muscle radioactivity ([2]; 20 min after injection) was 3.51 (0.21) %ID/g. For the same compound, the Pancreas radioactivity ([2]; 20 min after injection) was 9.80 (3.25) %ID/g, the Small intestine radioactivity ([2]; 20 min after injection) was 1.97 (0.11) %ID/g and the Spleen radioactivity ([2]; 20 min after injection) was 1.73 (0.55) %ID/g. For the same compound, the Stomach radioactivity ([2]; 20 min after injection) was 1.06 (0.05) %ID/organ, the Blood radioactivity ([2]; 60 min after injection) was 10.38 (2.03) %ID/g and the Bone radioactivity ([2]; 60 min after injection) was 2.42 (0.33) %ID/g. The Brain radioactivity ([2]; 60 min after injection) was 0.39 (0.04) %ID/g, the Heart uptake ([2]; 60 min after injection) was 20.92 (3.67) %ID/g and the Kidney radioactivity ([2]; 60 min after injection) was 6.24 (0.62) %ID/g. For the same compound, the Large intestine radioactivity ([2]; 60 min after injection) was 1.20 (0.15) %ID/g, the Liver radioactivity ([2]; 60 min after injection) was 4.34 (0.61) %ID/g and the Lung radioactivity ([2]; 60 min after injection) was 13.11 (3.05) %ID/g. For the same compound, the Muscle radioactivity ([2]; 60 min after injection) was 3.87 (0.80) %ID/g, the Pancreas radioactivity ([2]; 60 min after injection) was 8.04 (3.89) %ID/g and the Small intestine radioactivity ([2]; 60 min after injection) was 1.88 (0.29) %ID/g. For the same compound, the Spleen radioactivity ([2]; 60 min after injection) was 1.68 (0.81) %ID/g and the Stomach radioactivity ([2]; 60 min after injection) was 1.06 (0.17) %ID/organ.
